Measurements published in US6083496A, “Polyamine transport inhibitors” (priority 1996, dated 2000).
Values belong to the molecule of their own block, whether it stands above or below them.

Assays:
ZR-75-1 cells [1] = experiment: Effect of inhibitors on cell proliferation (11 days, DNA content); assay type: cell-based, human
Description: Effect of Inhibitors on Cell Proliferation--For growth studies, ZR-75-1 cells were cultured in MEZR medium or in phenol red-free RPMI 1640 supplemented with 2 mM L-glutamine, 1 mM sodium pyruvate, 15 mM Hepes, antibiotics, 1 nM 17β-estradiol, 0.5 μg of bovine insulin per ml and 5% (v/v) charcoal-treated fetal bovine serum (SD medium), as indicated in the text. […] M. L. 1989. in The Physiology of Polyamines (Bachrach, U., and Helmer, Y. M. eds) Vol. I, pp. 203-229, CRC Press, Boca Raton). […] Endocrinology 126: 3223-3231). Medium was changed every other day in these experiments because of the slow reaction of the compound with an unknown component present in the IMEM and RPMI 1640 medium formulation.

ZR-75-1 cells [2] = experiment: Intracellular accumulation of DESC and MESC and polyamine contents (HPLC); assay type: cell-based, human
Description: Polyamine Analysis--ZR-75-1 cells were plated in 100 mm culture dishes at 5×10^5 cells/dish in MEZR medium and grown for 5 days with medium changes every other day. Fresh MEZR medium containing the indicated concentration of transport antagonist was then added, plus or minus 200 μM cycloheximide (CHX), and cells were incubated for 1 or 6 hours. […] Cell pellets were resuspended in 300 μl of 10% (v/v) trichloroacetic acid or Tris-DTT buffer (50 mM Tris/HCl, 0.1 mM EDTA, 5 mM DTT, pH 7.5) and stored at -20° C. until further analysis. For chromatographic analysis, samples were first quickly thawed and incubated for 15 minutes at 37° C. Trichloroacetic acid was then added to DTT-containing samples to a final concentration of 10% (wt/v). Samples were dispersed for 2 minutes in a sonicating water bath, and pelleted in a microcentrifuge for 5 minutes. The trichloroacetic acid-insoluble pellet was solubilized in 300-500 μl of 1 N NaOH and used to determine protein content using bovine serum albumin (fraction V) as standard.
Since DESC was eluted as a late, broad peak in the HPLC system used, DTT was added to cell extracts to reduce DESC to MESC and decrease the detection threshold. ZR-75-1 cells were incubated for 1 or 6 hours in MEZR medium in the presence of 50 or 200 μM DESC or MESC prior to determination of polyamine contents. CHX was added at 200 μM where indicated. Other details are provided under "Materials and Methods". Values are the mean±SD of triplicate determinations from 2 independent experiments.

[3] = secondary amino group of the spermine head; cited from earlier work
ZR-75-1 cells [4] = experiment: Reversal of DFMO-induced growth inhibition by exogenous spermidine; assay type: cell-based, human
Description: Effect of Inhibitors on Cell Proliferation--For growth studies, ZR-75-1 cells were cultured in MEZR medium or in phenol red-free RPMI 1640 supplemented with 2 mM L-glutamine, 1 mM sodium pyruvate, 15 mM Hepes, antibiotics, 1 nM 17β-estradiol, 0.5 μg of bovine insulin per ml and 5% (v/v) charcoal-treated fetal bovine serum (SD medium), as indicated in the text. When polyamines or polyamine analogs were added to serum-containing media, 1 mM aminoguanidine was added to inhibit bovine serum amine oxidase (BSAO) activity (Morgan, D. M. L. 1989. in The Physiology of Polyamines (Bachrach, U., and Helmer, Y. M. eds) Vol. I, pp. 203-229, CRC Press, Boca Raton). The effect of the transport inhibitors on cell growth was measured by incubating ZR-75-1 cells for 11 days in medium supplemental with antagonist, polyamines and/or 1 mM DFMO as indicated, followed by colorimetric determination of DNA content with 3,5-diaminobenzaic acid (Simard, J., Dauvois, S., Haagensen, D. E., Levesque, C., Merand, Y. and Labrie, F. 1990. Endocrinology 126: 3223-3231). Medium was changed every other day in these experiments because of the slow reaction of the compound with an unknown component present in the IMEM and RPMI 1640 medium formulation.

polyamine transporter [5] = conditions: ZR-75-1 cells; compound as its own substrate; read-out: Km, spermidine transport; cited from earlier work
ZR-75-1 cells [6] = conditions: background; cited from earlier work
[7] = Stability in buffered aqueous solution; assay type: physicochemical; conditions: buffered at pH=7.0
polyamine transporter [8] = experiment: Putrescine uptake ([3H]putrescine) in ZR-75-1 cells; assay type: cell-based, human; conditions: DESC up to 100 μM, MESC up to 200 μM
Description: J. Biol. […] Endocrinology 126: 3223-3231). […] Cell cultures were then washed twice with 1 ml PBS containing 5.7 mM sym-norspermidine. Cells were then lysed with 200-μl aliquot of 1 N NaOH and incubated for 30 minutes at 60° C. After neutralization with 200 μl of 1 N HCl, radioactivity was determined from a 250-μl of the cell lysate by scintillation counting. Uptake activity was expressed per amount of total cellular protein as determined by the method of Bradford (Bradford, M. M. 1976. Anal. Biochem. 72: 248-254). Non-specific binding of radioactive substrate was similarly determined in parallel for both cell lines after a 15 second-incubation with 400 μl of ice-cold uptake solution. […] Km, Ki and Vmax values were then estimated by Line-weaver-Burke analysis. For competitive inhibitors, Ki values were also estimated by measuring uptake activity in the presence of logarithmically increasing concentrations of antagonist, and using the Cheng-Prusoff equation (Cheng. Y. -C. and Prusoff, W. H. 1973. Biochem. Pharmacol. 22: 3099-3108) by iterative curve fitting for a sigmoidal curve. For mixed competitive/noncompetitive inhibition, two methods were used to calculate kinetic constants. […] C. 1976. Enzymes, 3rd Ed., Academic Press, San Diego, Calif.). […] C. 1976. Enzymes, 3rd Ed., Academic Press, San Diego, Calif.).

polyamine transporter [9] = experiment: Spermidine uptake ([3H]spermidine) in CHO-K1 cells; assay type: cell-based, Chinese hamster; conditions: MESC thioether derivatives, FIG. 5

DESC intracellular content (ZR-75-1 cells [2]; 50 μM compound, 1 h): < 0.01 nmol/mg protein
MESC intracellular content (ZR-75-1 cells [2]; 50 μM compound, 1 h): < 0.01 nmol/mg protein
DESC intracellular content (ZR-75-1 cells [2]; 50 μM compound, 6 h): < 0.01 nmol/mg protein
MESC intracellular content (ZR-75-1 cells [2]; 50 μM compound, 6 h): < 0.01 nmol/mg protein
DESC intracellular content (ZR-75-1 cells [2]; 200 μM compound, 1 h): < 0.01 nmol/mg protein
MESC intracellular content (ZR-75-1 cells [2]; 200 μM compound, 1 h): 0.020 nmol/mg protein
DESC intracellular content (ZR-75-1 cells [2]; 200 μM compound, 6 h): < 0.01 nmol/mg protein
MESC intracellular content (ZR-75-1 cells [2]; 200 μM compound, 6 h): 0.13 nmol/mg protein
SMILES: NCCCNCCCC(NCCCN)C(=O)NCCS (stereo not shown) [MESC, N-(2-mercaptoethyl)spermine-5-carboxamide]
Influence of 1 mM aminoguanidine on the growth effect of the compound (ZR-75-1 cells [1]): not blocked by aminoguanidine
inhibition at 200 µM (ZR-75-1 cells [1]; Homo sapiens, ZR-75-1, 264 h, 200 μM, 11 days, read-out: Decrease in cell growth): 35%
Spermidine intracellular content (ZR-75-1 cells [2]; 50 μM compound, 1 h): 0.95 ± 0.11 nmol/mg protein
Spermidine intracellular content (ZR-75-1 cells [2]; 50 μM compound, 6 h): 0.75 ± 0.11 nmol/mg protein
Spermidine intracellular content (ZR-75-1 cells [2]; 200 μM compound, 1 h): 1.15 ± 0.07 nmol/mg protein
Spermidine intracellular content (ZR-75-1 cells [2]; 200 μM compound, 6 h): 0.81 ± 0.15 nmol/mg protein
pKa [3]: ≈ 5.5

SMILES: NCCCCNCCCN [Spermidine, N-[3-aminopropyl]-1,4-diaminobutane]
Concentration completely reversing growth inhibition by 1 mM DFMO (ZR-75-1 cells [4]; 11 days): 0.3 µM
Inhibition of cell proliferation (ZR-75-1 cells [4]; concentrations superior to 0.3 μM, 11 days, FIG. 8): up to 20%
Km (polyamine transporter [5]): 0.49 ± 0.15 µM
Concentration completely reversing DFMO-induced growth inhibition (ZR-75-1 cells [6]): 300 nM

SMILES: NCCC[C@](N)(C(=O)O)C(F)F [DFMO, α-difluoromethylornithine]
inhibition at 1000 µM (ZR-75-1 cells [4]; Homo sapiens, ZR-75-1, 264 h, 1 mM, 11-day incubation): ~50%

Stability in aqueous solution [7]: stable for months
SMILES: NCCCNCCCC(NCCCN)C(=O)NCCSSCCN (stereo not shown) [DEASC, N-[2,2'-Dithio(Ethyl, 1'-Aminoethyl)]spermine-5-carboxamide]
Influence of 1 mM aminoguanidine on the growth effect of the compound (ZR-75-1 cells [1]): completely prevented by the amine oxidase inhibitor
inhibition at 50 µM (ZR-75-1 cells [1]; Homo sapiens, ZR-75-1, 264 h, 50 μM, 11 days): 20%
Mode of inhibition of [3H]putrescine uptake (polyamine transporter [8]): mixed competitive/non-competitive

SMILES: NCCCNCCCC(NCCCN)C(=O)NCCSCC(=O)NCCN1C(=O)c2cc(S(=O)(=O)O)cc3c(N)c(S(=O)(=O)O)cc(c23)C1=O (stereo not shown) [MESC-LY]
Ki toward spermidine uptake compared with MESC (polyamine transporter [9]): did not signicantly (P>0.10) increase the Ki
